Measurements taken from article PMC7558282, “The Anticancer Activity for the Bumetanide-Based Analogs via Targeting the Tumor-Associated Membrane-Bound Human Carbonic Anhydrase-IX Enzyme” (Pharmaceuticals, 2020).
Several values for one entry are separate records, joined by “and”; a condition that tells them apart may be missing. Equal entries are not always repeated.

Key:
hCA-IX [1] = target: T1, hCA-IX (Homo sapiens, UniProt Q16790); design: purchased BPS Bioscience 71101; details: compared with compound 2; no reference given; cited from earlier work
mitochondrial hCAs = target: mitochondrial hCAs; design: method as in PMID 18600270, PMID 18374572; details: read-out: inhibition for mitochondrial hCAs (moderate); cited from earlier work
cytosolic hCAs = target: cytosolic hCAs; design: method as in PMID 18600270, PMID 18374572; details: read-out: inhibition for cytosolic hCAs (weak); cited from earlier work
[2] = target: tumor-associated hCA isoforms; design: method as in PMID 18600270, PMID 18374572; details: cited from earlier work
hCA-IX [3] = target: T1, hCA-IX; experiment: colorimetric CA-inhibition assay based on CA-esterase activity, hCA-IX; details: for IC50: hCA-IX IC50, three replicate experiments; for Selectivity Ratio II/IX: ratio of IC50 values for isozyme CA-II relative to CA-IX
Experimental: (§2) Based on the kit manufacturer’s protocol, the candidate inhibitors were dissolved in DMSO at 10 × highest final test concentration and specific aliquots of such working dilutions were incubated with the target hCA isozyme for 10 min at room temperature prior to permit the formation of the enzyme-inhibitor complex. Triplicate experiments were performed for each candidate inhibitor concentration. Parallel wells of solvent and enzyme controls were prepared to test the solvent impact upon the activity of the target enzyme. […] Following incubation, the CA-substrate was added and changes in absorbance (at 405 nm) were monitored for 60 min at room temperature within the kinetic mode. The negative enzyme control wells (without added compounds) were arbitrarily set as 100% enzyme activity. […] Absorbance readings from background wells were subtracted from the compound assay wells in order to account for background hydrolysis activity caused by the buffer solution [44, 45].

hCA-II = hCA-II (Homo sapiens, UniProt P00918); experiment: colorimetric CA-inhibition assay based on CA-esterase activity, hCA-II; details: hCA-II IC50, three replicate experiments; N/D = non-detected IC50 within the range of the tested concentrations
Experimental: as §2

[4] = tested on: SCaBER bladder squamous cell carcinoma cells; experiment: MTT cell proliferation assay, SCaBER; format: cell-based; details: Homo sapiens, 48 h, ±SEM
Experimental: (§1) Cells were cultured in 96-well plate, at cell density of 1.2–1.8 × 10^4 cells/well, using Dulbecco’s Modified Eagle Medium (Invitrogen^TM, Carlsbad, CA, USA) supplemented with 10% (w/v) fetal bovine serum (Hyclone^TM, Marlborough, MA, USA), 10 ug/mL of insulin (Sigma-Aldrich^TM, St. Louis, MO, USA), and 1% (w/v) penicillin-streptomycin (Sigma-Aldrich^TM, St. Louis, MO, USA). Following 24h-incubation period under 5% CO2 at 37 °C, cells were treated with compounds’ serial concentrations (0.1 µM–100 µM) in DMSO, where the DMSO final concentration in the culture medium never exceeded 0.2% (v/v). Subsequently, the treated microplates were incubated for 48 h at 5% CO2/37 °C prior to examination under the inverted microscope and proceeding for the MTT assay. The culture medium was discarded and 100 µL of complete medium comprising 5 mg/mL MTT dye were dispensed within every well, then plates were reincubated for 2 h at 5% CO2/37 °C. […] Color intensity within each well was measured spectrophotometrically using the ROBONIK-P2000® ELISA microplate reader (Bio-Tek^TM, Winooski, VT, USA) at 450 nm while subtracting the background absorbance of multi well plates at 690 nm. The experiment was conducted in triplicates and IC50 values were estimated through linear regression between the logarithm-transformed compound concentrations and corresponding % cell viability = (mean absorbance in test wells/mean absorbance in control wells) ∗ 100, having the response variable slope (four parameters) for all samples.

[5] = tested on: A-498 kidney carcinoma cells; experiment: MTT cell proliferation assay, A-498; format: cell-based, human; details: ±SEM
Experimental: as §1

| SMILES | IC50 (hCA-IX [3]) | Selectivity Ratio II/IX (hCA-IX [3]) | IC50 (hCA-II) | also measured |
| --- | --- | --- | --- | --- |
| CCCCNc1cc(C(=O)O)cc(S(N)(=O)=O)c1Oc1ccccc1 [Bumetanide, bumetanide] | – | – | – | hCA-IX inhibition of bumetanide (hCA-IX [1]): ~ 23 nM; Ki (mitochondrial hCAs): 250 to 700 nM; Ki (cytosolic hCAs): 2570 to 6980 nM; Ki on the tumor-associated hCA isoforms [2]: 21.1 to 25.8 nM |
| CCCCNc1cc(C(=O)OC)cc(S(N)(=O)=O)c1Oc1ccccc1 [Compound 2, bumetanide methyl ester] | 23.7 nM | 28.1 | 668 nM | – |
| CCCCNc1cc(C(=O)NN)cc(S(N)(=O)=O)c1Oc1ccccc1 [Compound 3, bumetanide hydrazide] | 7.87 nM | 205.1 | 1610 nM | – |
| CCCCNc1cc(C(=O)N2N=CCC2=O)cc(S(N)(=O)=O)c1Oc1ccccc1 [Compound 4] | 16.4 nM | 63.9 | 1050 nM | – |
| CCCCNc1cc(-c2n[nH]c(=S)o2)cc(S(N)(=O)=O)c1Oc1ccccc1 [Compound 5] | 12.4 nM | 39.0 | 486 nM | – |
| CCCCNc1cc(C(=O)n2nc(C)cc2C)cc(S(N)(=O)=O)c1Oc1ccccc1 [Compound 6a] | 16.6 nM | – | – | – |
| CCCCNc1cc(C(=O)n2nc(C)cc2-c2ccccc2)cc(S(N)(=O)=O)c1Oc1ccccc1 [Compound 6b] | 5.43 nM | 158.9 | 858 nM | – |
| CCCCNc1cc(C(=O)NNC(=S)Nc2ccccc2)cc(S(N)(=O)=O)c1Oc1ccccc1 [Compound 7a] | 17.7 nM | 88.6 | 1570 nM | – |
| C=CCNC(=S)NNC(=O)c1cc(NCCCC)c(Oc2ccccc2)c(S(N)(=O)=O)c1 [Compound 7b] | 14.4 nM | 93.4 | 1340 nM | – |
| CCCCNc1cc(C(=O)NNC(=S)Nc2ccc(Br)cc2)cc(S(N)(=O)=O)c1Oc1ccccc1 [Compound 7c] | 12.9 nM | 118.9 | 1540 nM | – |
| CCCCNc1cc(C(=O)N/N=c2\scc(-c3ccc(Cl)cc3)n2-c2ccccc2)cc(S(N)(=O)=O)c1Oc1ccccc1 [Compound 8a] | 6.53 nM | 38.6 | 251 nM | IC50 [4]: 28400 ± 1400 nM; IC50 ([5]; 48 h): 15700 ± 630 nM; IC50 ([5]; Homo sapiens, A498, 48 h): 15600 nM |
| CCCCNc1cc(C(=O)N/N=c2\scc(-c3ccc(C)cc3)n2-c2ccccc2)cc(S(N)(=O)=O)c1Oc1ccccc1 [Compound 8b] | 13 nM | 101.6 | 1320 nM | – |
| CCCCNc1cc(C(=O)N/N=c2\scc(-c3ccc(OC)cc3)n2-c2ccccc2)cc(S(N)(=O)=O)c1Oc1ccccc1 [Compound 8c] | 12.6 nM | 37.5 | 474 nM | – |
| C=CCn1c(-c2ccc(Cl)cc2)cs/c1=N\NC(=O)c1cc(NCCCC)c(Oc2ccccc2)c(S(N)(=O)=O)c1 [Compound 8d] | 6.36 nM | 804.6 | 5120 nM | – |
| C=CCn1c(-c2ccc(C)cc2)cs/c1=N\NC(=O)c1cc(NCCCC)c(Oc2ccccc2)c(S(N)(=O)=O)c1 [Compound 8e] | 11.5 nM | 44.9 | 518 nM | – |
| C=CCn1c(-c2ccc(OC)cc2)cs/c1=N\NC(=O)c1cc(NCCCC)c(Oc2ccccc2)c(S(N)(=O)=O)c1 [Compound 8f] | 13.4 nM | 74.5 | 999 nM | – |
| CCCCNc1cc(C(=O)N/N=c2\scc(-c3ccc(Cl)cc3)n2-c2ccc(Br)cc2)cc(S(N)(=O)=O)c1Oc1ccccc1 [Compound 8g] | > 7 nM and 7.18 nM | 109.2 | 784 nM | – |
| CCCCNc1cc(C(=O)N/N=c2\scc(-c3ccc(C)cc3)n2-c2ccc(Br)cc2)cc(S(N)(=O)=O)c1Oc1ccccc1 [Compound 8h] | > 7 nM and 14.3 nM | 14.5 | 205 nM and 209 nM | IC50 [4]: 78040 ± 290 nM; IC50 ([5]; Homo sapiens, A498, 48 h): 6550 ± 260 nM |
| CCCCNc1cc(C(=O)N/N=c2\scc(-c3ccc(OC)cc3)n2-c2ccc(Br)cc2)cc(S(N)(=O)=O)c1Oc1ccccc1 [Compound 8i] | > 7 nM and 10.6 nM | 40.3 | 426 nM | – |
| CCCCNc1cc(-c2n[nH]c(=S)n2-c2ccccc2)cc(S(N)(=O)=O)c1Oc1ccccc1 [Compound 9a] | 5.31 nM | 764.8 | 4060 nM | – |
| C=CCn1c(-c2cc(NCCCC)c(Oc3ccccc3)c(S(N)(=O)=O)c2)n[nH]c1=S [Compound 9b] | 7.25 nM | 28.3 | 205 nM | IC50 [4]: 78100 ± 1700 nM; IC50 ([5]; 48 h): 16100 ± 1400 nM; IC50 ([5]; Homo sapiens, A498, 48 h): 16000 nM |
